Experimental data from patent US10882856B2 (BeiGene, Ltd., priority 2017, dated 2021).

Legend:
TDO = target: T1, TDO (Homo sapiens, UniProt P48775); assay: TDO enzymatic assay; format: biochemical; details: read-out: Enzyme IC50 TDO
T1 construct: His tag (C); made in house; host or cells: E. coli
Summary of the method: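 Recombinant C-terminally His-tagged TDO purified from E. coli (100 nM) was tested with 0.5 mM L-tryptophan (Km concentration). Otherwise the IDO1 enzymatic set-up was used: ascorbic acid, methylene blue, catalase, and potassium phosphate pH 7.5 with BSA, incubated 1.5 hours. N'-formylkynurenine absorbance was read continuously at 321 nm, and activity was taken as the slope. IC50 was calculated from remaining enzyme activity across increasing compound concentrations.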

[1] = target: T2, cellular TDO2 in HEK293-TDO2 cells (Homo sapiens, UniProt P48775); assay: 293-TDO2 cell-based assay (Kyn colorimetric); details: 48 hours of incubation
T2 construct: expressed in transfected cells; host or cells: HEK293 (ATCC), stably transfected
T2 sequence (P48775 whole entry): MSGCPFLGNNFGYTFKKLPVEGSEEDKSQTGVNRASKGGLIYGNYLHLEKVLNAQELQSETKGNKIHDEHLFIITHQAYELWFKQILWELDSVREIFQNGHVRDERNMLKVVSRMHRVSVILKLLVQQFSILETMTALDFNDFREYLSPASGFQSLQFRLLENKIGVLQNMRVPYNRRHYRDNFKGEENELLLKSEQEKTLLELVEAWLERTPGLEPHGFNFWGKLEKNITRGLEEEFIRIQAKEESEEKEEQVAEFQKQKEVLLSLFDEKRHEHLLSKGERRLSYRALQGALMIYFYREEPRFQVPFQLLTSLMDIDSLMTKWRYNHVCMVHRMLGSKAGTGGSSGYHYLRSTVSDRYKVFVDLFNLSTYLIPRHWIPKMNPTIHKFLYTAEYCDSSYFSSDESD
Summary of the method: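 Kyn formed from L-Trp was read colorimetrically at 480 nm (TCA deproteinisation, then 2% 4-(dimethylamino)benzaldehyde). Compounds were added to 293-TDO2 cells 4 h post-seeding and left 48 h at 37° C. A four-parameter logistic model gave IC50 values.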

IDO1 [2] = target: T3, IDO1 (Homo sapiens, UniProt P14902); assay: Hela cell-based IDO1 assay; details: Hela cells
T3 sequence (P14902 whole entry): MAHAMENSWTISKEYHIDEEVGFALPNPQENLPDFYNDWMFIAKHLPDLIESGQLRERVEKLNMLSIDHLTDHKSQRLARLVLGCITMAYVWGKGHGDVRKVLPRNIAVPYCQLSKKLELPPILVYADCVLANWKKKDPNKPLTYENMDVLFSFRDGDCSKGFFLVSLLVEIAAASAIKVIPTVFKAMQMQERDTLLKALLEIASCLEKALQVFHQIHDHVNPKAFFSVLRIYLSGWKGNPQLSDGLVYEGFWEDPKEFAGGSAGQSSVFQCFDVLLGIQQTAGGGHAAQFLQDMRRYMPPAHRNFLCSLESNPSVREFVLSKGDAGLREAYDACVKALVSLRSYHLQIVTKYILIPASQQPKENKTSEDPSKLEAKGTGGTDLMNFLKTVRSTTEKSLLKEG
Summary of the method: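 Kynurenine was measured at 480 nm in trichloroacetic acid-deproteinised supernatant after adding 2% 4-(dimethylamino)benzaldehyde. This supernatant came from HeLa cells seeded at 8000 per well in 96-well plates in phenol red-free DMEM with 10% FBS and, from 4 hours after seeding, exposed for 48 hours at 37 °C, 5% CO2 to DMSO-diluted compound dilutions, IFN-γ (final 100 ng/mL) and 0.4 mM L-Trp. The resulting data were fitted with a four-parameter logistic model in XLfit. Potency was taken from those fits.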

IDO1 [3] = target: T3, IDO1; assay: IDO1 enzymatic assay; format: biochemical; parameters: His tag (N); made in house; host or cells: E. coli; details: read-out: Enzyme IC50 IDO1
Summary of the method: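 IC50 values reflect remaining IDO1 activity over increasing compound concentrations. The enzyme (50 nM, N-terminally His-tagged, purified from E. coli) was incubated for 1.5 hours at 24 °C with compound, 1.3 mM D-tryptophan, 5 mM L-ascorbic acid, methylene blue and 0.4 mg/mL catalase in 50 mM potassium phosphate pH 7.5 with 0.1% BSA. The slope of N'-formylkynurenine formation, read continuously at 321 nm for 1 hour, served as activity.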

T1 sequence (P48775 whole entry): as the sequence (P48775 whole entry) above

Compound	IC50 (TDO) [nM]	EC50 [1] [nM]	EC50 (IDO1 [2]) [nM]	IC50 (IDO1 [3]) [nM]
O[C@H](c1c(C2CC2)ccn2cncc12)[C@H]1CC[C@H](c2ccc(Cl)cc2)CC1 (single isomer, unassigned) [Example C102a]	16000	> 10000	471	36
COCCOc1ccc([C@H]2CC[C@H]([C@H](O)c3c(C4CC4)ccn4cncc34)CC2)cc1 (single isomer, unassigned) [Example C103a]	10000	> 10000	167	21
Oc1ccc([C@H]2CC[C@H](C(O)c3c(C4CC4)ccn4cncc34)CC2)cc1 (single isomer, unassigned) [Example C104a]	2500	> 10000	50	18
O[C@H](c1c(C2CC2)ccn2cncc12)[C@H]1CC[C@H](c2ccc(OC(F)(F)F)cc2)CC1 (single isomer, unassigned) [Example C105a]	9100	> 10000	1140	48
N#Cc1ccc([C@H]2CC[C@H](C(O)c3c(C4CC4)ccn4cncc34)CC2)cc1 (single isomer, unassigned) [Example C106a]	5200	> 10000	141	20
O[C@H](c1c(C2CC2)ccn2cncc12)[C@H]1CC[C@H](c2ccc(F)cc2)CC1 (single isomer, unassigned) [Example C107a]	6500	> 10000	109	31
O[C@H](c1c(C2CC2)ccn2cncc12)[C@H]1CC[C@H](c2ccccc2F)CC1 (single isomer, unassigned) [Example C108a]	5100	> 10000	112	28
O[C@H](c1c(C2CC2)ccn2cncc12)[C@H]1CC[C@H](c2cccc(F)c2)CC1 (single isomer, unassigned) [Example C109a]	8500	> 10000	49	43
Cc1ccc([C@H]2CC[C@H]([C@H](O)c3c(C4CC4)ccn4cncc34)CC2)cc1 (single isomer, unassigned) [Example C110a]	21000	> 10000	283	35
Cc1cccc([C@H]2CC[C@H]([C@H](O)c3c(C4CC4)ccn4cncc34)CC2)c1 (single isomer, unassigned) [Example C111a]	8000	> 10000	131	28
Cc1ccccc1[C@H]1CC[C@H]([C@H](O)c2c(C3CC3)ccn3cncc23)CC1 (single isomer, unassigned) [Example C112a]	5100	> 10000	183	40
COc1ccccc1[C@H]1CC[C@H]([C@H](O)c2c(C3CC3)ccn3cncc23)CC1 (single isomer, unassigned) [Example C113a]	5700	> 10000	89	28
COc1cccc([C@H]2CC[C@H]([C@H](O)c3c(C4CC4)ccn4cncc34)CC2)c1 (single isomer, unassigned) [Example C114a]	8300	> 10000	180	27
O[C@H](c1c(C2CC2)ccn2cncc12)[C@H]1CC[C@H](c2ccc(C(F)(F)F)cc2)CC1 (single isomer, unassigned) [Example C115a]	11000	> 10000	2400	67
O[C@H](c1c(C2CC2)ccn2cncc12)[C@H]1CC[C@H](c2ccccc2C(F)(F)F)CC1 (single isomer, unassigned) [Example C116a]	6300	> 10000	500	77
O[C@H](c1c(C2CC2)ccn2cncc12)[C@H]1CC[C@H](c2ccc(OC3COC3)cc2)CC1 (single isomer, unassigned) [Example C117a]	3400	> 10000	131	15

Now from value to molecule:

IC50 (TDO) [nM]	EC50 [1] [nM]	EC50 (IDO1 [2]) [nM]	IC50 (IDO1 [3]) [nM]	Compound
–	> 10000	36	22	OC(c1c(C2CC2)ccc2cncn12)C1CCN(c2ccc(F)cc2)CC1 (stereo not shown) [Example D171, (6-cyclopropylimidazo[1,5-a]pyridin-5-yl)(1-(4-fluorophenyl)piperidin-4-yl)methanol]
–	> 10000	58	28	OC(c1c(C2CC2)ccc2cncn12)C1CCN(c2cccc(F)c2)CC1 (stereo not shown) [Example D172]
–	> 10000	23	14	O[C@H](c1c(C2CC2)ccc2cncn12)C1CCN(c2cccc(F)c2)CC1 [Example D172a]
–	> 10000	5400	2700	O[C@@H](c1c(C2CC2)ccc2cncn12)C1CCN(c2cccc(F)c2)CC1 [Example D172b]
–	> 10000	65	30	OC(c1c(C2CC2)ccc2cncn12)C1CCN(c2cccc(Cl)c2)CC1 (stereo not shown) [Example D173, (1-(3-chlorophenyl)piperidin-4-yl)(6-cyclopropylimidazo[15-a]pyridin-5-yl)methanol]
–	> 10000	167	38	OC(c1c(C2CC2)ccc2cncn12)C1CCN(c2ccc(Cl)cc2)CC1 (stereo not shown) [Example D174, (1-(4-chlorophenyl)piperidin-4-yl)(6-cyclopropylimidazo[1,5-a]pyridin-5-yl)methanol]
–	> 10000	21	22	OC(c1c(C2CC2)ccc2cncn12)C1CCN(c2ccc(F)c3ncccc23)CC1 (stereo not shown) [Example D175, (6-cyclopropylimidazo[1,5-a]pyridin-5-yl)(1-(8-fluoroquinolin-5-yl)piperidin-4-yl)methanol]
–	> 10000	109	25	Cn1cc(-c2ccc(N3CCC(C(O)c4c(C5CC5)ccc5cncn45)CC3)cc2)cn1 (stereo not shown) [Example D176, (6-cyclopropylimidazo[1,5-a]pyridin-5-yl)(1-(4-(1-methyl-1H-pyrazol-4-yl)phenyl)piperidin-4-yl)methanol]
–	> 10000	107	25	OCCn1cc(-c2ccc(N3CCC(C(O)c4c(C5CC5)ccc5cncn45)CC3)cc2)cn1 (stereo not shown) [Example D177]
–	> 10000	40	24	OC(c1c(C2CC2)ccc2cncn12)C1CCN(c2ccc(Cl)c3ncccc23)CC1 (stereo not shown) [Example D178, (1-(8-chloroquinolin-5-yl)piperidin-4-yl)(6-cyclopropylimidazo[1,5-a]pyridin-5-yl)methanol]
–	> 10000	187	26	OC(c1c(C2CC2)ccc2cncn12)C1CCN(c2ccc3nccc(Cl)c3c2)CC1 (stereo not shown) [Example D179, (1-(4-chloroquinolin-6-yl)piperidin-4-yl)(6-cyclopropylimidazo[1,5-a]pyridin-5-yl)methanol]
–	> 10000	40	30	OC(c1c(C2CC2)ccc2cncn12)C1CCN(c2cccc3ncncc23)CC1 (stereo not shown) [Example D180, (6-cyclopropylimidazo[1,5-a]pyridin-5-yl)(1-(quinazolin-5-yl)piperidin-4-yl)methanol]
–	> 10000	1020	31	OC(c1c(C2CC2)ccc2cncn12)C1CCN(c2ccc3ncncc3c2)CC1 (stereo not shown) [Example D181, (6-cyclopropylimidazo[1,5-a]pyridin-5-yl)(1-(quinazolin-6-yl)piperidin-4-yl)methanol]
–	> 10000	6310	62	OC(c1cc(Cl)cc2cncn12)C1CCC(c2ccc(Cl)cc2)CC1 (stereo not shown) [Example E101, (7-chloroimidazo[1,5-a]pyridin-5-yl)(4-(4-chlorophenyl)cyclohexyl)methanol]
–	> 10000	4840	270	OC(c1cc(C2CC2)cc2cncn12)C1CCC(c2ccc(Cl)cc2)CC1 (stereo not shown) [Example E102, (4-(4-chlorophenyl)cyclohexyl)(7-cyclopropylimidazo[1,5-a]pyridin-5-yl)methanol]
–	> 10000	2320	43	OC(c1cc(Cl)cc2cncn12)C1CCC(c2cccc3ccccc23)CC1 (stereo not shown) [Example E103, (7-chloroimidazo[1,5-a]pyridin-5-yl)(4-(naphthalen-1-yl)cyclohexyl)methanol]
–	> 10000	5440	80	OC(c1cc(Cl)cc2cncn12)C1CCC(c2ccc3ccccc3c2)CC1 (stereo not shown) [Example E104, (7-chloroimidazo[1,5-a]pyridin-5-yl)(4-(naphthalen-2-yl)cyclohexyl)methanol]
